Patent US11498923B2 (Merck Sharp & Dohme Corp., priority 2017, dated 2022)

Each compound was assayed against T1, human A2a receptor (Homo sapiens, UniProt P29274) (assay: A2a receptor competition binding assay (Scintillation Proximity)). Settings: membranes from HEK293 cells expressing human A2a receptor; 0.5 nM tritiated ligand; Cheng-Prusoff; read-out: A2a Ki.
T1 construct: purchased Perkin-Elmer RBHA2AM400UA; host or cells: HEK293 cells, used as a membrane preparation
Outline: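 Ki values were obtained with the Cheng-Prusoff equation from competition curves against 0.5 nM tritiated antagonist, scintillation proximity counting after 1 h room-temperature incubation. Receptor came from HEK293 membranes pretreated with adenosine deaminase; compound final range 3000–0.15 nM, buffer Ca/Mg-free PBS with 10 mM MgCl2.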

T1 sequence (P29274 whole entry): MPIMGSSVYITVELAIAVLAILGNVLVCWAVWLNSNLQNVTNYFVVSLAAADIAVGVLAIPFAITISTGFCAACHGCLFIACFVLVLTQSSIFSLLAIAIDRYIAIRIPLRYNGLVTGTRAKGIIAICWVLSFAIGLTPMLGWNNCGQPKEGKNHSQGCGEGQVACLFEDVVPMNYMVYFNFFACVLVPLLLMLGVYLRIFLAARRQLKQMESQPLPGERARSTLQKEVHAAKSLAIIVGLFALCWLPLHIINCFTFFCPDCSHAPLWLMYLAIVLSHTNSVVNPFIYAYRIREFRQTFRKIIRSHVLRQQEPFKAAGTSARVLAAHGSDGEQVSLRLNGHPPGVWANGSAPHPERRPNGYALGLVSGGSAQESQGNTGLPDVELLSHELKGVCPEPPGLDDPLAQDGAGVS

Row | Compound | Ki
1 | CC(=O)N1CCC2(CCN(C(=O)c3cn4c(N)nc5c(F)cccc5c4n3)C2)C1 (stereo not shown) [Ex-274, 1-(7-(5-amino-7-fluoroimidazo[1,2-c]quinazoline-2-carbonyl)-2,7-diazaspiro[4.4]nonan-2-yl)ethan-1-one] | 0.032 µM
2 | Nc1nc2c(F)cccc2c2nc(Cc3ccc(C(=O)NCCN4CCOCC4)cc3)cn12 [Ex-90, 4-((5-amino-7-fluoroimidazo[1,2-c]quinazolin-2-yl)methyl)-N-(2-morpholinoethyl)benzamide] | 0.066 µM
3 | Nc1nc2c(F)cccc2c2nc(CC3CCN(Cc4cccnc4)CC3)cn12 [Ex-313, 7-fluoro-2-((1-(pyridin-3-yl-methyl)piperidin-4-yl)methyl)imidazo-[1,2-c]quinazolin-5-amine] | 0.31 µM
4 | Nc1nc2c(F)cccc2c2nc(Cc3cccc(-c4cccnc4)c3)cn12 [Ex-74, 7-fluoro-2-(3-(pyridin-3-yl)benzyl)imidazo[1,2-c]quinazolin-5-amine] | 0.0045 µM
5 | CC(=O)Nc1ccc2c(c1)CN(C(=O)c1cn3c(N)nc4c(F)cccc4c3n1)CC2 [Ex-244, N-(2-(5-amino-7-fluoroimidazo[1,2-c]quinazoline-2-carbonyl)-1,2,3,4-tetrahydroisoquinolin-7-yl)acetamide] | 0.0496 µM
6 | COc1ccc(-c2cn(Cc3cn4c(N)nc5c(OC)cccc5c4n3)nn2)cc1 [Ex-93, 7-methoxy-2-((4-(4-methoxyphenyl)-1H-1,2,3-triazol-1-yl)methyl)imidazo[1,2-c]quinazolin-5-amine] | 0.0025 µM
7 | Nc1nc2c(F)cccc2c2nc(Cc3cccc(-c4ccc5nonc5c4)c3)cn12 [Ex-77, 2-(3-(benzo[c][1,2,5]oxadiazol-5-yl)benzyl)-7-fluoroimidazo[1,2-c]quinazolin-5-amine] | 0.012 µM
8 | Nc1nc2c(F)cccc2c2nc(Cc3ccnc(N4CCN(c5nc6ccccc6o5)CC4)c3)cn12 [Ex-63, 2-((2-(4-(benzo[d]oxazol-2-yl)piperazin-1-yl)pyridin-4-yl)methyl)-7-fluoroimidazo[1,2-c]quinazolin-5-amine] | 0.102 µM
9 | Nc1nc2c(F)cccc2c2nc(CC3CCN(C(=O)c4cnccn4)CC3)cn12 [Ex-321, (4-((5-amino-7-fluoroimidazo[1,2-c]quinazolin-2-yl)-methyl)piperidin-1-yl)(pyrazin-2-yl)-methanone] | 0.034 µM
10 | Nc1nc2cc(F)ccc2c2nc(Cc3ccccc3)cn12 [Ex-07, 2-benzyl-8-fluoroimidazo[1,2-c]quinazolin-5-amine] | 0.0046 µM
11 | C[C@@H](NC(=O)c1cn2c(N)nc3c(F)cccc3c2n1)c1ccccc1 [Ex-297, (R)-5-amino-7-fluoro-N-(1-phenylethyl)imidazo[1,2-c]quinazoline-2-carboxamide] | 0.0023 µM
12 | COc1cccc2c1nc(N)n1cc(C(=O)N3CC4CC4C3)nc21 (stereo not shown) [Ex-235, (5-amino-7-methoxyimidazo[1,2-c]quinazolin-2-yl)(3-azabicyclo[3.1.0]hexan-3-yl)methanone] | 0.0028 µM
13 | Nc1nc2c(F)cccc2c2nc(Cc3ccc(-c4cnccn4)cc3)cn12 [Ex-82, 7-fluoro-2-(4-(pyrazin-2-yl)benzyl)imidazo[1,2-c]quinazolin-5-amine] | 0.027 µM
14 | Nc1nc2c(F)cccc2c2nc(-c3ccccc3CO)cn12 [Ex-107, (2-(5-amino-7-fluoroimidazo[1,2-c]quinazolin-2-yl)phenyl)methanol] | 0.0043 µM
15 | COc1cccc2c1nc(N)n1cc(Cc3cccnc3N3CCCCC3)nc21 [Ex-50, 7-methoxy-2-((2-(piperidin-1-yl)pyridin-3-yl)methyl)imidazo[1,2-c]quinazolin-5-amine] | 0.0037 µM
16 | COc1cccc2c1nc(N)n1cc(C(=O)N3C[C@@H](C)O[C@H](C)C3)nc21 [Ex-239, (5-amino-7-methoxyimidazo[1,2-c]quinazolin-2-yl)((2R,6R)-2,6-dimethylmorpholino) methanone] | 0.13 µM

Further compounds by falling Ki, results first:

Row | Ki | Compound
17 | 10 µM | Nc1nc2ccccc2c2nc(C(=O)N3CCN(c4ccc(F)cc4F)CC3)cn12 [Ex-165, (5-aminoimidazo[1,2-c]quinazolin-2-yl)(4-(2,4-difluorophenyl)piperazin-1-yl)methanone]
18 | 0.76 µM | CCn1cc(-c2cccc3c2nc(N)n2cc(Cc4ccccc4)nc32)cn1 [Ex-150, 2-benzyl-7-(1-ethyl-1H-pyrazol-4-yl)imidazo[1,2-c]quinazolin-5-amine]
19 | 0.43 µM | CCCN1CCC2(CCN(C(=O)c3cn4c(N)nc5c(F)cccc5c4n3)CC2)C1 [Ex-277, (5-amino-7-fluoroimidazo[1,2-c]quinazolin-2-yl)(2-propyl-2,8-diazaspiro[4.5]decan-8-yl)methanone]
20 | 0.22 µM | Nc1nc2c(F)cccc2c2nc(CC3CCN(CC4CC4)CC3)cn12 [Ex-305, 2-((1-(cyclopropyl-methyl)piperidin-4-yl)methyl)-7-fluoro-imidazo[1,2-c]quina-zolin-5-amine]
21 | 0.097 µM | CC(=O)Nc1ccc2c(c1)CCN(Cc1cn3c(N)nc4c(F)cccc4c3n1)C2 [Ex-128, N-(2-((5-amino-7-fluoroimidazo[1,2-c]quinazolin-2-yl)methyl)-1,2,3,4-tetrahydroisoquinolin-6-yl)acetamide]
22 | 0.053 µM | COc1cccc2c1nc(N)n1cc(C(=O)N3C[C@@H](C)O[C@@H](C)C3)nc21 [Ex-180, (5-amino-7-methoxyimidazo[1,2-c]quinazolin-2-yl)((2R,6S)-2,6-dimethylmorpholino) methanone]
23 | 0.047 µM | Nc1nc2c(F)cccc2c2nc(C(=O)N3CCc4ccc(NC(=O)c5ccccn5)cc4C3)cn12 [Ex-291, N-(2-(5-amino-7-fluoroimidazo[1,2-c]quinazoline-2-carbonyl)-1,2,3,4-tetrahydroisoquinolin-7-yl)picolinamide]
24 | 0.016 µM | COc1cccc2c1nc(N)n1cc(C(=O)N3CC(C)CC(C)C3)nc21 (stereo not shown) [Ex-167, (5-amino-7-methoxyimidazo[1,2-c]quinazolin-2-yl)(3,5-dimethylpiperidin-1-yl)methanone]
25 | 0.011 µM | COc1cccc2c1nc(N)n1cc(C(=O)N3CCCC4(COC4)C3)nc21 [Ex-203, (5-amino-7-methoxyimidazo[1,2-c]quinazolin-2-yl)(2-oxa-6-azaspiro[3.5]nonan-6-yl)methanone]
26 | 0.0085 µM | Nc1nc2c(F)cccc2c2nc(CCc3ccccn3)cn12 [Ex-101, 7-fluoro-2-(2-(pyridin-2-yl)ethyl)imidazo[1,2-c]quinazolin-5-amine]
27 | 0.0062 µM | COc1cccc2c1nc(N)n1cc(Cc3cccnc3N3CCCC3)nc21 [Ex-49, 7-methoxy-2-((2-(pyrrolidin-1-yl)pyridin-3-yl)methyl)imidazo[1,2-c]quinazolin-5-amine]
28 | 0.0029 µM | Nc1nc2c(F)cccc2c2nc(C(=O)NCc3ccccc3OC3CCN(c4ccccn4)CC3)cn12 [Ex-263, 5-amino-7-fluoro-N-(2-((1 (pyridin-2-yl)piperidin-4-yl)oxy)benzyl)imidazo[1,2-c]quinazoline-2-carboxamide]
29 | 0.002 µM | COc1c(F)ccc2c1nc(N)n1cc(Cc3ccccc3)nc21 [Ex-11, 2-benzyl-8-fluoro-7-methoxyimidazo[1,2-c]quinazolin-5-amine]
30 | 0.0019 µM | COc1cccc2c1nc(N)n1cc(Cc3cccc(F)c3)nc21 [Ex-22, 2-(3-fluorobenzyl)-7-methoxyimidazo[1,2-c]quinazolin-5-amine]
31 | 0.0004 µM | COc1cccc2c1nc(N)n1cc(Cc3ccccc3CN3CCOCC3)nc21 [Ex-26, 7-methoxy-2-(2-(morpholinomethyl)benzyl)imidazo[1,2-c]quinazolin-5-amine]
